Results reported in BigSolDB 2.1.

NC(=O)c1ncn([C@@H]2O[C@H](CO)[C@@H](O)[C@H]2O)n1
solubility (mole fraction)
Settings	in DMSO	in acetone	in ethanol	in formic acid	in methanol	in n-butanol	in n-propanol	in sec-butanol	in water
283.15 K	–	3.77e-05	5.95e-05	0.0483	0.000576	7.44e-05	4.57e-05	7.85e-05	0.00879
288.15 K	–	4.45e-05	8.55e-05	0.0533	0.000665	8.95e-05	5.73e-05	8.47e-05	0.0104
293.15 K	0.0532	5.43e-05	0.000117	0.0644	0.000743	0.000117	7.99e-05	9.62e-05	0.0123
298.15 K	0.0659	6.36e-05	0.000158	0.0785	0.000865	0.000149	0.000102	0.000104	0.0144
303.15 K	0.075	7.87e-05	0.000209	0.091	0.00103	0.000175	0.000131	0.000122	0.0165
308.15 K	0.0821	9.41e-05	0.000282	0.104	0.00122	0.00021	0.000161	0.000135	0.019
313.15 K	0.095	0.000114	0.000339	0.114	0.00138	0.000246	0.000194	0.000161	0.0225
318.15 K	0.11	0.000139	0.000435	0.131	0.00169	0.000288	0.000235	0.000196	0.0269
323.15 K	0.125	0.000153	0.000552	0.159	0.00194	0.000362	0.000295	0.000224	0.0305
